Reference: article PMC10606834, “Is the Neuropeptide PEN a Ligand of GPR83?” (International Journal of Molecular Sciences, 2023)
Entries after “also recorded” stand apart in the source; their conditions may differ.

Tests used:
[1] = tested on: GPR83; conditions: cited from earlier work
Description: G protein-coupled receptor 83 (GPR83), also termed glucocorticoid-induced receptor (GIR), GPR72, KIAA1540, or JP05, is a class A G protein-coupled receptor with predominant expression in the […] and proposed function in the regulation of food intake and in anxiety-like behavior [1, 2, 3]. […] A potential role of GPR83 in regulatory T cell development and function has not been confirmed. […] The present study was initiated to evaluate PEN as a ligand of GPR83. […] While one end of the peptide may be crucial for binding the receptor, an absolute requirement of both peptide termini to be free of another ...

[2] = tested on: GPR83 (HTLA cells); experiment: TANGO β-arrestin assay, GPR83; type: cell-based, human; conditions: ligand library containing PEN (library plates 10 µM); HTLA cells expressing GPR83; PRESTO-Tango, RLU
Description: The TANGO assay reports GPCR-related activation of β-arrestin using a luminescent readout.
For the determination of β-arrestin recruitment after GPCR activation, the PRESTO-Tango system was utilized. On day one, HTLA cells (HEK293 cell line stably expressing a tTA-dependent luciferase reporter and a β-arrestin2-TEV fusion gene, maintained in RPMI supplemented with 10% FBS, 2 μg/mL puromycin, and 100 μg/mL hygromycin) were seeded into 150 mm cell culture plates at 1 × 10^7 cells per well in 30 mL of medium. The next day, transfections were performed directly in the 150 mm plates using jetPEI (Polyplus, Illkirch, France). Plasmid DNA of interest was prepared for transfection following the jetPEI protocol and with a DNA/jetPEI ratio of 1:1. A GFP-encoding plasmid was added as a transfection control (GFP plasmid added as 10% of total DNA to the total NaCl used for plasmid DNA dilution). On day 3, transfected cells were transferred at 15,000 cells per well in 30 μL of medium into 384-well black well, clear bottom plates. On day 4, ligand library multiwall plates (10 µM) were thawed, and 23 μL was added to each well. On day 5, 50 μL per well of BrightGlo luminescence reagent (diluted 10-fold with HBSS buffer) was carefully added, and plates were incubated for 10 min before luminescence reading in the EnVision 2103 Multilabel Reader (Perkin Elmer).

[3] = tested on: GPR83 and GPR83del, with or without HA tag (HEK293 cells; wild-type HEK293 as comparison); experiment: Competitive radioligand binding assay, GPR83; parameters: species or system human
Description: One of the most proven methods for quantitatively analyzing the interaction of biomolecules is the competitive radioligand binding assay. […] To safeguard against possible interference of the added Tyr with ligand–receptor binding, two peptides were created and are as follows: one with the Tyr on the aminoterminal end (Tyr-PEN), and the other with Tyr added on the carboxyterminus (PEN-Tyr). Radiolabeled ^125I-PEN-Tyr and ^125I-Tyr-PEN were then used on wild-type HEK293 cells and HEK293 cells expressing various forms of GPR83 (full-length or deletion variant, with or without HA tag) in competition with different concentrations of natural PEN or Tyr-PEN, ranging from 1 pM to 1 µM.
Figure 5 HEK293 wild-type cells and HEK293 cells overexpressing various forms of GPR83 were used in radioligand binding assays with two different radioactively labeled PEN peptides: [^125I]-Tyr-PEN or [^125I]-PEN-Tyr. (A) Radioligand [^125I]-PEN-Tyr in competition with unlabeled wild-type PEN. (B) Radioligand [^125I]-Tyr-PEN in competition with unlabeled wild-type PEN. (C) Radioligand [^125I]-PEN-Tyr in competition with unlabeled wild-type PEN. (D) Radioligand [^125I]-Tyr-PEN in competition with Tyr-PEN. […]
Two variants of human PENs were utilized for radioiodination in this study: one with a tyrosine added at the aminoterminal end (Tyr-PEN: […]-NH2), and one with an additional tyrosine attached to the carboxyterminal end (PEN-Tyr: […]-NH2). Both were labelled with ^125I using the chloramine-T method. Chloramine-T and sodium metabisulfite solutions were freshly prepared in water. For labelling, 10 µL of peptide (stock 1 mM) with 15 µL of sodium phosphate buffer (0.5 M, pH 7.6) was mixed with 37 MBq carrier-free Na^125I (NEZ033L010MC, Perkin Elmer, Waltham, MA, USA). A 4 μL volume of chloramine T (1 mg/mL) was added to start the reaction, and after 30 s, 4 μL sodium metabisulfite (2 mg/mL) was added to stop the iodination. The labeled radioactive peptide was separated from unlabeled peptide with HPLC purification (Agilent ZORBAX 300 Extend-C18 column) using a gradient from 20–50% acetonitrile (+0.1% TFA) against water (+0.1% TFA) for 20 min. To determine the retention time of the radioactive peptide, 1–2 µL of the reaction mixture was analyzed before the purification run. The fraction containing the radiolabeled peptide peak was then collected, diluted with binding buffer to prevent radioautolysis, aliquoted, and stored at −80 °C.
4.10. Radioligand Binding Assay
For competitive radioligand binding assay, approximately 50,000 cells/well were seeded in a 96-well plate incubated overnight at 37 °C. Next day, cells were incubated in binding buffer (50 mM HEPES pH 7.4, 5 mM MgCl2, 1 mM CaCl2, 0.5% BSA, cOmplete protease inhibitors) containing 100,000 counts per minute of ^125I-labelled peptide, with increasing concentrations of unlabeled peptide. After 2 h of incubation, cells were washed for 2–3 times with ice-cold washing buffer (50 mM Tris-HCl, pH 7.4, 125 mM NaCl, 0.05% BSA) and lysed with 1 N NaOH (80 µL/well). The lysed cells were transferred to vials and measured in a gamma counter (Wallac 1470 Wizard, Perkin Elmer, Waltham, MA, USA). Obtained cpm values were plotted with GraphPad Prism 7, and the data were fitted using nonlinear regression (one site—fit Ki, one site—fit logIC50).

## AADHDVGSELPPEGVLGALLRV [PEN, batch #1 synthesized, batch #2 purchased from Phoenix Pharmaceuticals]
[1]; 2016 proposal, ref [10]
  ligand for GPR83: serves as a distinct ligand for GPR83
[1]; comparative evaluation, multiple assay systems, ref [16]
  GPR83 ligand and agonist: not PEN
[1]; independent reports from two other labs, ref [12],[13]
  activation of GPR83: supported activation of GPR83 by PEN
[2]
  β-arrestin activation (luminescence): no reactivity was detected; also recorded: failed to generate a signal
[3]; unlabeled peptide 1 pM to 1 µM versus 125I-PEN-Tyr or 125I-Tyr-PEN, HEK293 wild-type and GPR83 / GPR83del with or without HA tag, pH 7.4, 2 h
  concentration-dependent displacement of radioligand: neither of these different assay conditions led to a PEN-GPR83 binding signal above background or a concentration-dependent displacement of the radioligand
[3]; up to four GPR83-overexpressing cell clones, two radiolabeled PEN variants, whole cells
  interaction with GPR83 in radioligand binding assay: no interaction could be detected between PEN and GPR83
